A short description of data set [1]: Determination of the solubility in PBS buffer pH 6.5. In kind it is physicochemical. The settings on record: 20° C. Here is the method: B-7. Determination of the Solubility Reagents Required: • PBS buffer pH 6.5: 90.00 g of NaCl p.a. […] Preparation of the Starting Solution (Original Solution):
10 μl of the original solution are transferred into a microtiter plate, and 1000 μl of PBS buffer pH 6.5 are added.
From each of the sample solutions, 100 μl of the supernatant are removed and diluted 1:5 and 1:100 with DMSO. From each dilution, a sample is transferred into a vessel suitable for HPLC analysis.
The samples are analysed by RP-HPLC. Quantification is carried out using a two-point calibration curve of the test compound in DMSO. The solubility is expressed in mg/liter. Analysis sequence: 1) calibration solution […]; 2) calibration solution 20 μg/ml; 3) sample solution 1:5; 4) sample solution 1:100.

The next data set deals with rat hepatocytes. Description: Hepatocyte assay to determine the metabolic stability. The class given is in vitro ADME. The settings on record: for Fmax, maximum possible bioavailability after oral administration (well-stirred): rat. The protocol:
Seven samples of the incubation solution are taken in a fixed time pattern for the […] analysis in order to determine the half-life (i.e. the degradation) of the compound in each case. Various clearance parameters (CL) and Fmax values are calculated from this half-life (see below).
The Cl and Fmax values represent a measure of the phase 1 and phase 2 metabolism of the compounds in the hepatocytes. In order to minimize the influence of the organic solvent on the enzymes in the incubation mixtures, this concentration is generally limited to 1% (acetonitrile) or 0.1% (DMSO).
A cell count for hepatocytes in the liver of 1.1*10^8 cells/g of liver is used for calculation for all species and breeds.
The calculated parameters and their meaning are: • Fmax well-stirred [%] maximum possible bioavailability after oral administration • Calculation: (1-CLblood well-stirred/QH)*100 • CLblood well-stirred [L/(h*kg)] calculated blood clearance (well-stirred model) • Calculation: (QH*CL′intrinsic)/(QH+CL′intrinsic) • CL′intrinsic [ml/(min*kg] maximum ability of the liver (of the hepatocytes) to metabolize a compound (on the assumption that the hepatic blood flow is not rate-limiting) • Calculation: CL′intrinsic, apparent*species-specific hepatocyte count [1.1* 10^8/g of liver]*species-specific liver weight [g/kg] • CL′intrinsic, apparent [ml/(min*mg)] normalizes the elimination constant by dividing it by the hepatocyte cell count x (x*10^6/ml) employed • Calculation: ke1 [1/min]/(cell count [x*10^6]/incubation volumes [ml]) • (QH=species-specific hepatic blood flow).

In data set [2] the target is T1, human neutrophil elastase (HNE) (Homo sapiens, UniProt P08246).
T1 construct: purchased Serva, Heidelberg
T1 sequence (P08246 30-267): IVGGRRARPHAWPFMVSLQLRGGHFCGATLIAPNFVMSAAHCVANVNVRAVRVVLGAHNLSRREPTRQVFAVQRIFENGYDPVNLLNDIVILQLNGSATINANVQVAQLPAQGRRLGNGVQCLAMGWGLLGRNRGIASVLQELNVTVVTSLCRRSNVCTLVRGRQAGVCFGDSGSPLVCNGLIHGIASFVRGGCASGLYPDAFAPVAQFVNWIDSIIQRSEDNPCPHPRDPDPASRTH
The data set is described as follows: In vitro HNE inhibition assay. In kind it is biochemical. The settings on record: HNE concentration of 80 pM; substrate MeOSuc-Ala-Ala-Pro-Val-AMC; 37° C., 2 hours. The protocol: The potency of the compounds of the invention is ascertained in an in vitro inhibition assay. The HNE-mediated amidolytic cleavage of a suitable peptide substrate leads in this connection to an increase in the fluorescent light. The signal intensity of the fluorescent light is directly proportional to the enzyme activity.
Enzyme (80 pM HNE; from Serva, Heidelberg) and substrate (20 μM MeOSuc-Ala-Ala-Pro-Val-AMC; from Bachem, Weil am Rhein) are incubated in an assay volume of in total 50 μl of assay buffer (0.1 M HEPES pH 7.4, 0.5 M NaCl, 0.1% w/v BSA, 1% v/v DMSO) in a 384-well microtiter plate in the presence and absence of the test substance at 37° C. for 2 hours.

In brackets after ≈: the same amount, converted by molar mass.

For orientation: Solubility means how much of the substance goes into solution per volume. A higher Solubility goes with much dissolved substance. In general, IC50 refers to the point on the concentration scale where inhibition reaches its midpoint. The low end stands for inhibition by little substance, the high end for a need for much substance. The term solubility denotes the concentration that dissolves in the medium under given conditions. A lower solubility goes with a poorly soluble substance.

In the case of `CC1=C(C#N)[C@@H](c2ccc(C#N)cc2S(C)(=N)=O)N(C)C(=O)N1c1cccc(C(F)(F)F)c1` (mixture of isomers) [Example 38, (SS)-(4S)-4-[4-Cyano-2-(S-methylsulfonimidoyl)phenyl]-3,6-dimethyl-2-oxo-1-[3-(trifluoromethyl)phenyl]-1,2,3,4-tetrahydropyrimidine-5-carbonitrile or (RS)-(4S)-4-[4-cyano-2-(S-methylsulfonimidoyl)phenyl]-3,6-dimethyl-2-oxo-1-[3-(trifluoromethyl)phenyl]-1,2,3,4-tetrahydropyrimidine-5-carbonitrile], the Solubility in data set [1] (24 hours) was determined as 300 µg/mL (≈ 634 µM). In addition, the “CLblood, calculated blood clearance (well-stirred)” value (from here on “CLblood, calculated blood clearance”) in the data set with rat hepatocytes (after incubation with rat hepatocytes) was 0 mL/min/kg.

Turning to `CC1=C(C#N)[C@@H](c2ccc(C#N)cc2S(C)(=N)=O)NC(=O)N1c1cccc(C(F)(F)F)c1` (mixture of isomers) [Example 41, (SS)-(4S)-4-[4-Cyano-2-(S-methylsulfonimidoyl)phenyl]-6-methyl-2-oxo-1-[3-(trifluoromethyl)phenyl]-1,2,3,4-tetrahydropyrimidine-5-carbonitrile or (RS)-(4S)-4-[4-cyano-2-(S-methylsulfonimidoyl)phenyl]-6-methyl-2-oxo-1-[3-(trifluoromethyl)phenyl]-1,2,3,4-tetrahydropyrimidine-5-carbonitrile], the “CLblood, calculated blood clearance” value with rat hepatocytes (hepatocytes) is 0 mL/min/kg. For the same compound, the “Fmax, maximum possible bioavailability after oral administration (well-stirred)” value (from here on “Fmax, maximum possible bioavailability”) with rat hepatocytes is on record as 100%. Inhibition in data set [2] was half-maximal at 0.9 nM (IC50).

With `CC1=C(C#N)[C@@H](c2ccc(C#N)cc2S(N)(=O)=O)NC(=O)N1c1cccc(C(F)(F)F)c1` [Example 1, 5-Cyano-2-{(4S)-5-cyano-6-methyl-2-oxo-1-[3-(trifluoromethyl)phenyl]-1,2,3,4-tetrahydropyrimidin-4-yl}benzenesulfonamide], the “CLblood, calculated blood clearance” value in the data set with rat hepatocytes (hepatocytes) is 1.7 mL/min/kg. Further, the “Fmax, maximum possible bioavailability” value with rat hepatocytes worked out at 97%. Besides, it took 0.4 nM to reach half-maximal inhibition in data set [2] (IC50).

With `CNS(=O)(=O)c1cc(C#N)ccc1[C@H]1NC(=O)N(c2cccc(C(F)(F)F)c2)C(C)=C1C#N` [Example 2, 5-Cyano-2-{(4S)-5-cyano-6-methyl-2-oxo-1-[3-(trifluoromethyl)phenyl]-1,2,3,4-tetrahydropyrimidin-4-yl}-N-methylbenzenesulfonamide], in the data set on rat hepatocytes (hepatocytes), the “CLblood, calculated blood clearance” value is 31.7 mL/min/kg. Besides, in the data set on rat hepatocytes, the “Fmax, maximum possible bioavailability” value turned out to be 54%. In data set [2], this compound displayed an IC50 of less than 0.3 nM.

Compound `CC1=C(C#N)[C@@H](c2ccc(C#N)cc2S(=O)(=O)N(C)C)NC(=O)N1c1cccc(C(F)(F)F)c1` [Example 3, 5-Cyano-2-{(4S)-5-cyano-6-methyl-2-oxo-1-[3-(trifluoromethyl)phenyl]-1,2,3,4-tetrahydropyrimidin-4-yl}-N,N-dimethylbenzenesulfonamide] had an IC50 in data set [2] of less than 0.3 nM.

The compound `CC1=C(C#N)[C@@H](c2ccc(C#N)cc2S(=O)(=O)N2CCOCC2)NC(=O)N1c1cccc(C(F)(F)F)c1` [Example 4, (4S)-4-[4-Cyano-2-(morpholin-4-ylsulfonyl)phenyl]-6-methyl-2-oxo-1-[3-(trifluoromethyl)phenyl]-1,2,3,4-tetrahydropyrimidine-5-carbonitrile] displayed an IC50 in data set [2] of less than 0.3 nM.

`CC1=C(C#N)[C@@H](c2ccc(C#N)cc2S(N)(=O)=O)N(C)C(=O)N1c1cccc(C(F)(F)F)c1` [Example 10, 5-Cyano-2-{(4S)-5-cyano-3,6-dimethyl-2-oxo-1-[3-(trifluoromethyl)phenyl]-1,2,3,4-tetrahydropyrimidin-4-yl}benzenesulfonamide] came in with an IC50 in data set [2] of less than 0.3 nM.

As for `CC1=C(C#N)[C@@H](c2ccc(C#N)cc2S(=O)(=O)NCCO)N(C)C(=O)N1c1cccc(C(F)(F)F)c1` [Example 11, 5-Cyano-2-{(4S)-5-cyano-3,6-dimethyl-2-oxo-1-[3-(trifluoromethyl)phenyl]-1,2,3,4-tetrahydropyrimidin-4-yl}-N-(2-hydroxyethyl)benzenesulfonamide], the concentration in solution in data set [1] (aqueous buffer, kinetic from dmso stock) (solubility at 24 h) came to 300 µg/mL (≈ 577 µM). The compound further came in with an IC50 in data set [2] of less than 0.3 nM.

`CC1=C(C#N)[C@@H](c2ccc(C#N)cc2S(=O)(=O)NCC(N)=O)N(C)C(=O)N1c1cccc(C(F)(F)F)c1` [Example 13, N^2-[(5-Cyano-2-{(4S)-5-cyano-3,6-dimethyl-2-oxo-1-[3-(trifluoromethyl)phenyl]-1,2,3,4-tetrahydropyrimidin-4-yl}phenyl)sulfonyl]glycinamide]: the “CLblood, calculated blood clearance” value in the data set on rat hepatocytes (hepatocytes) is 31.7 mL/min/kg. In the data set on rat hepatocytes, the “Fmax, maximum possible bioavailability” value is on record as 54%. The same compound had an IC50 in data set [2] of less than 0.3 nM.

In data set [2], `CC1=C(C#N)[C@@H](c2ccc(C#N)cc2S(=O)(=O)NCCCN2CCCC2=O)NC(=O)N1c1cccc(C(F)(F)F)c1` [Example 14] came in with an IC50 of 4.5 nM.

In data set [2], `CC1=C(C#N)[C@@H](c2ccc(C#N)cc2S(=O)(=O)NCC2CCN(C)C2)NC(=O)N1c1cccc(C(F)(F)F)c1` (stereo partly drawn) [Example 21, 5-cyano-2-{(4S)-5-cyano-6-methyl-2-oxo-1-[3-(trifluoromethyl)phenyl]-1,2,3,4-tetrahydropyrimidin-4-yl}-N-[(1-methylpyrrolidin-3-yl)methyl]-benzenesulfonamide] had an IC50 of 0.7 nM.

The values above are taken from patent US8691817B2, “Sulfonic amide and sulfoximine-substituted diaryl-dihydropyrimidinones and usage thereof” (Bayer Intellectual Property GmbH, priority 2009, dated 2014).
